23 compounds from patent US11479587B2, “Cationic intrinsically disordered antimicrobial peptides” (priority 2016, dated 2022) can be followed below.

The nature of data set [1]: Cytotoxicity (resazurin) assay. How it is done:
For the cytotoxicity (resazurin) assay, HEK293 cells were counted manually in a Neubauer haemocytometer and plated at a density of 4000 cells/well into each well of the 384-well plates containing the 25×(2 μl) concentrated compounds. The medium used was Dulbecco's modified eagle medium (DMEM) supplemented with 10% foetal bovine serum (FBS). Cells were incubated together with the compounds for 20 h at 37° C., 5% CO2. To measure cytotoxicity, 5 μl (equals 100 μM final) resazurin was added to each well after incubation, and incubated for further 3 h at 37° C. with 5% CO2.
After final incubation fluorescence intensity was measured as F ex 560/10 nm, em 590/10 nm (F560/590) using a Tecan M1000 Pro monochromator plate reader. […] The concentration dependent percentage cytotoxicity was fitted to a dose response function (using Pipeline Pilot) and CC50 values determined.

The next data set in a line: Hemolysis assay. Format: cell-based. The procedure: For the hemolysis assays EDTA-blood was centrifuged at 800×g for 10 min, and the plasma and buffy coat were removed. The erythrocytes were washed three times and resuspended in 5% PBS, pH 7.4. The cells were then incubated with end-over-end rotation for 1 h at 37° C. in the presence of different concentrations of peptides (0, 3, 10, 30, 60 μm). 0.1% Triton X-100 (Sigma-Aldrich) served as positive control. The samples were then centrifuged at 800×g for 10 min.
The absorbance of hemoglobin release was measured at 540 nm and is expressed as % of Triton X-100-induced hemolysis. These values of triplicates were plotted with Graph Pad Prism 4 as a dose response curve and the CC50 was determined.

The next data set concerns S. aureus ATCC 6538. Description: CFU-assay, S. aureus-cidal activity. In kind it is cell-based, Staphylococcus aureus. How it is done: Thus, within the present invention, the antimicrobial activity is generally measured in nutrient deficient 10 mM sodium phosphate buffer pH 5.5, containing 0.25% glucose, using the CFU-assay according to Steinberg and Lehrer, 1997 (supra), unless otherwise indicated. The CFU-assay allows determination of the minimal bactericidal concentration (MBC, e.g., MBC90 and MBC100; i.e. the concentration of compound required to achieve a specified reduction in bacterial cell number (microbial death or killing)).
Various peptides corresponding to repeat domains of hornerin (HR 1-11: HRNR 2606-2628; HR 1-17: HRNR 2656-2684 and HR 1-18: HRNR 2656-2677) were tested for P. aeruginosa ATCC 10145-cidal activity in 10 mM Na-phosphate buffer pH 5.5, containing 0.25% glucose by counting the numbers of colonies of surviving bacteria at serial, twofold dilutions from 300 μg/ml down to 19 ng/ml of each peptide (CFU-assay; Steinberg and Lehrer, 1997, Methods Mol. Biol. 78, 169-186).
Staphylococcus aureus is a major skin pathogen, which causes skin infections, in particular in atopic dermatitis. The sensitivity of S. aureus ATCC 6538 towards several CIDAMPs was assessed using the CFU-assay as above (see Example 1). HR 1-18, which lacks S. aureus.-bactericidal activity, is converted in a S. aureus-cidal peptide, when all His are replaced by Arg (HR 1-18 4H-4R; see Table 13 and FIG. 9). […] HR 1-18 4H-4R is rich in Ser and Arg and contains a single Leu residue. When this single Leu was replaced by Gly in S. aureus-cidal HR 1-18 4H-4R (forming HR 1-18 4H-4R/L-G), S. aureus-cidal activity was abolished at both pH 7.0 and pH 5.5 (see Table 13 and FIG. 9).

For another data set, the system named is P. aeruginosa ATCC 10145. Kind of data set: CFU-assay, P. aeruginosa-cidal activity. In kind it is cell-based, Pseudomonas aeruginosa. The settings on record: pH 5.0, 0.25% glucose.

Converted amounts (≈) assume the structure as drawn. Non-standard residues stand in square brackets, D forms with d. Residues, ends and D or L forms follow the SMILES beside them. No end group written: not given here. *: point of attachment. Palmitoyl = CCCCCCCCCCCCCCCC(=O)*; Myristoyl = CCCCCCCCCCCCCC(=O)*; dOrn = NCCC[C@@H](N)C(=O)O

Regarding `CCCCCCCCCCCCCCCC(=O)SC[C@H](NC(=O)[C@H](CCCNC(=N)N)NC(=O)CNC(=O)[C@H](CCCNC(=N)N)NC(=O)CNC(=O)[C@H](CCCNC(=N)N)NC(=O)CNC(=O)CNC(=O)[C@H](CCCNC(=N)N)NC(=O)CNC(=O)CNC(=O)[C@H](CCCNC(=N)N)NC(=O)[C@H](CCCNC(=N)N)NC(=O)CN)C(N)=O` [C-Pal-GR13] (H-GRRGGRGGRGRGRC(Palmitoyl)-NH2), the half-maximal cytotoxic concentration (CC50) in data set [1] was greater than 32 mg/L.

Compound `CCCCCCCCCCCCCCCC(=O)NCC(=O)N[C@H](CCCCN)C(=O)NCC(=O)N[C@H](CCCCN)C(=O)O` [D-Pal-GK4, D-Pal-GKDGKD] (HELM PEPTIDE1{[CCCCCCCCCCCCCCCC(=O)[*:2]].G.[dK].G.[dK]}$$$$V2.0) displayed an HC50 in the data set “Hemolysis assay” of 40 µg/mL. In data set [1], this compound showed a CC50 greater than 32 mg/L.

Turning to `CCCCCCCCCCCCCCCC(=O)NCC(=O)N[C@H](CCCN)C(=O)NCC(=O)N[C@H](CCCN)C(=O)O` [D-Pal-GOrn4, D-Pal-GODGOD] (Palmitoyl-G[dOrn]G[dOrn]-OH), the HC50 in “Hemolysis assay” was 55 µg/mL. For the same compound, the CC50 in data set [1] was greater than 32 mg/L.

Regarding `CCCCCCCCCCCCCCCC(=O)NCC(=O)N[C@H](CCCNC(=N)N)C(=O)NCC(=O)N[C@H](CCCNC(=N)N)C(=O)O` [D-Pal-GR4, Pal-GRDGRD] (HELM PEPTIDE1{[CCCCCCCCCCCCCCCC(=O)[*:2]].G.[dR].G.[dR]}$$$$V2.0), the HC50 in the data set “Hemolysis assay” came to 300 µg/mL. This compound showed a 50% cytotoxic concentration (CC50) in data set [1] greater than 32 mg/L.

`CCCCCCCCCCCCCCCC(=O)NCC(=O)N[C@H](CCCNC(=N)N)C(=O)N[C@H](CCCNC(=N)N)C(=O)NCC(=O)NCC(=O)N[C@H](CCCNC(=N)N)C(=O)NCC(=O)NCC(=O)N[C@H](CCCNC(=N)N)C(=O)O` [D-Pal-GR9] (HELM PEPTIDE1{[CCCCCCCCCCCCCCCC(=O)[*:2]].G.[dR].[dR].G.G.[dR].G.G.[dR]}$$$$V2.0): in the data set “Hemolysis assay”, the HC50 was greater than 100 µg/mL. The compound further yielded a CC50 in data set [1] greater than 32 mg/L.

Turning to `N=C(N)NCCC[C@H](NC(=O)[C@H](Cc1c[nH]cn1)NC(=O)[C@H](CO)NC(=O)[C@H](CCCNC(=N)N)NC(=O)[C@H](CCCNC(=N)N)NC(=O)[C@H](CS)NC(=O)[C@H](CCCNC(=N)N)NC(=O)[C@H](Cc1c[nH]cn1)NC(=O)[C@H](Cc1c[nH]cn1)NC(=O)[C@@H](N)CO)C(=O)N[C@@H](CS)C(=O)O` [LCE3A50-60] (H-SHHRCRRSHRC-OH), the CC50 in data set [1] is greater than 32 mg/L.

In the case of `N=C(N)NCCC[C@H](NC(=O)[C@H](CC(=O)O)NC(=O)[C@H](CS)NC(=O)[C@H](CO)NC(=O)[C@H](CC(N)=O)NC(=O)[C@H](CO)NC(=O)[C@H](CCCNC(=N)N)NC(=O)[C@H](CCC(N)=O)NC(=O)[C@H](CCCNC(=N)N)NC(=O)[C@H](CCCNC(=N)N)NC(=O)[C@H](CS)NC(=O)[C@H](CCC(N)=O)NC(=O)[C@H](Cc1c[nH]cn1)NC(=O)[C@H](CO)NC(=O)[C@H](CCCNC(=N)N)NC(=O)[C@H](Cc1ccccc1)NC(=O)[C@H](Cc1c[nH]cn1)NC(=O)[C@H](CCCNC(=N)N)NC(=O)[C@H](Cc1c[nH]cn1)NC(=O)[C@H](Cc1c[nH]cn1)NC(=O)[C@@H](N)CO)C(=O)O` [LCE3C55-75] (H-SHHRHFRSHQCRRQRSNSCDR-OH), the concentration for 50% haemolysis (HC50) in “Hemolysis assay” is greater than 300 µg/mL. The CC50 in data set [1] is greater than 32 mg/L.

In “Hemolysis assay”, `CCCCCCCCCCCCCC(=O)NCC(=O)N[C@@H](CCCNC(=N)N)C(=O)N[C@@H](Cc1c[nH]cn1)C(=O)NCC(=O)N[C@@H](CO)C(=O)NCC(=O)N[C@@H](CC(C)C)C(=O)NCC(=O)N[C@@H](Cc1c[nH]cn1)C(=O)N[C@@H](CO)C(=O)N[C@@H](CO)C(=O)N[C@@H](CO)C(=O)N[C@@H](Cc1c[nH]cn1)C(=O)NCC(=O)N[C@@H](CCC(N)=O)C(=O)N[C@@H](Cc1c[nH]cn1)C(=O)NCC(=O)N[C@@H](CO)C(=O)NCC(=O)N[C@@H](CO)C(=O)NCC(=O)N[C@@H](CCCNC(=N)N)C(=O)O` [Myr-HR 1-18] (HELM PEPTIDE1{[CCCCCCCCCCCCCC(=O)[*:2]].G.R.H.G.S.G.L.G.H.S.S.S.H.G.Q.H.G.S.G.S.G.R}$$$$V2.0) showed an HC50 greater than 300 µg/mL. Further, the CC50 in data set [1] was 32 mg/L (≈ 13.9 µM).

For “GQHGSSSGHSSTHGQHGSASGQSSSC-Pal* (GQHGSSSGHSSTHGQHGSASGQSSSC(Pal)-NH2) [S-Pal-HRNR2004-2029]”, the MBC90 against S. aureus ATCC 6538 (pH 5.5, 0.25% glucose) was found to be 0.59 mg/L.

With “GQHGSSSGHSSTHGQHGSTSGQSSSC-Pal* (GQHGSSSGHSSTHGQHGSTSGQSSSC(Pal)-NH2) [S-Pal-HRNR598-623]”, in the data set with S. aureus ATCC 6538 (pH 5.5, 0.25% glucose), the MBC90 was found to be 2.35 mg/L and the MBC100 was greater than 150 mg/L.

In the data set with S. aureus ATCC 6538 (pH 5.5, 0.25% glucose), “GRHGSGSGQSSGFGHHESSSWQSSGC-Pal* (GRHGSGSGQSSGFGHHESSSWQSSGC(Palmitoyl)-NH2) [S-Pal-HRNR1389-1414]” gave an MBC90 of 1.18 mg/L and an MBC100 of 18.8 mg/L.

Regarding “GRRGSGGGRSSSRGGRGSGSGR (Modified peptide derived from human hornerin (HR 1-18 4H-4R/L-G))”, in the data set on S. aureus ATCC 6538 (pH 5.5, 0.25% glucose), the MBC90 is greater than 300 mg/L and the MBC100 is greater than 300 mg/L. Besides, in the data set on S. aureus ATCC 6538 (pH 7.0 and pH 5.5), the “S. aureus-cidal activity (in words)” value was “abolished”. In the data set on P. aeruginosa ATCC 10145, this compound displayed an MBC90 of 0.038 mg/L and an MBC100 of 0.15 mg/L.

As for “LRHGSGLGHSSSHGQHGSGSGR (Modified peptide derived from human hornerin (HR 1-18 G2656L))”, in the data set with S. aureus ATCC 6538 (pH 5.5, 0.25% glucose), the MBC90 was found to be 300 mg/L and the MBC100 was greater than 300 mg/L. In the data set on P. aeruginosa ATCC 10145, this compound showed an MBC90 of 4.7 mg/L and an MBC100 greater than 300 mg/L.

In the data set on S. aureus ATCC 6538 (pH 7.3, 1% TSB), “Myr-GRRGSGLGRSSSRGQRGSGSGR (Myristoyl-GRRGSGLGRSSSRGQRGSGSGR) [Myr-HR 1-18 HR]” came in with an MBC90 of 18.75 mg/L and an MBC100 of 75 mg/L.

With NHHRRHHRCR [LCE3D55-64], in data set [1], the CC50 is greater than 32 mg/L.

In the data set on S. aureus ATCC 6538 (pH 5.5, 0.25% glucose), “Pal-CGQHGATSGQSSSHGQHGSGSSQSSR (C(Palmitoyl)GQHGATSGQSSSHGQHGSGSSQSSR) [S-Pal-HRNR623-648]” registered an MBC90 of 2.35 mg/L and an MBC100 greater than 150 mg/L.

With “Pal-CGQHGATSSGQSSSHGQHGSGSSQSSGYGR (C(Palmitoyl)GQHGATSSGQSSSHGQHGSGSSQSSGYGR) [S-Pal-HRNR1089-1117]”, in the data set with S. aureus ATCC 6538 (pH 5.5, 0.25% glucose), the MBC90 was greater than 150 mg/L and the MBC100 was greater than 150 mg/L.

In the data set on S. aureus ATCC 6538 (pH 5.5, 0.25% glucose), “Pal-SHHRHFRSHQCRRQRSNSCDR (Palmitoyl-SHHRHFRSHQCRRQRSNSCDR; cysteine pairing not given here) [Pal-LCE3C55-75]” yielded an MBC90 of 0.15 mg/L and an MBC100 of 0.59 mg/L.

Turning to “SGHSSVFGQHESGSGHSSAYSQHGSGSGHFC-Pal* (SGHSSVFGQHESGSGHSSAYSQHGSGSGHFC(Palmitoyl)-NH2) [S-Pal-HRNR1748-1778]”, the MBC100 in the data set on S. aureus ATCC 6538 (pH 5.5) turned out to be 2.8 µM; in the data set with S. aureus ATCC 6538 (pH 5.5, 0.25% glucose), 9.38 mg/L. Also, the MBC90 was 0.3 mg/L against S. aureus ATCC 6538 (pH 5.5, 0.25% glucose) and 0.09 µM in the data set with S. aureus ATCC 6538 (pH 5.5, 0.25% glucose (text)).

Regarding SHHRHFRSHQCR [LCE3C55-66], the cytotoxic concentration (CC50) in data set [1] was greater than 32 mg/L.

In turn, SHHRPRLFHRHRH [LCE2A70-82] displayed a CC50 in data set [1] greater than 32 mg/L.

In data set [1], SHHRRRRSHCH [LCE1B78-88] yielded a 50% cytotoxic concentration (CC50) greater than 32 mg/L.

In the case of “SRRSSSLSRSSSRSSRSSSSSR (Modified peptide derived from human hornerin (HR 1-18 4H-4R/9G-9S))”, the MBC90 in the data set with S. aureus ATCC 6538 (pH 5.5, 0.25% glucose) is 150 mg/L; in the data set with S. aureus ATCC 6538 (pH 7.2, 0.25% glucose), 75 mg/L; in the data set with P. aeruginosa ATCC 10145, 0.15 mg/L. Further, the MBC100 against S. aureus ATCC 6538 (pH 5.5, 0.25% glucose) is greater than 300 mg/L; against S. aureus ATCC 6538 (pH 7.2, 0.25% glucose) it was greater than 300 mg/L; in the data set on P. aeruginosa ATCC 10145, 1.18 mg/L.
